Experimental data as given in patent USRE49850E1, “N-(pyridin-2-yl)-4-(thiazol-5-yl)pyrimidin-2-amine derivatives as therapeutic compounds” (AUCENTRA THERAPEUTICS PTY LTD, priority 2015, dated 2024).
Where two headings read alike, the source gives them in different places.

How the values were obtained:
[1] = test system: D458; test: Cell viability assay, medulloblastoma D458; format: cell-based; conditions: Homo sapiens, 72 h, read-out: Antiproliferative activity GI50 D458
Excerpt: (§1) Compounds from Example 1 were subjected to a standard MTT (3-(4,5-dimethylthiazol-2-yl)-2,5-diphenyltetrazolium bromide) and resazurin assays on solid tumour cell lines and leukemia cell lines, respectively, as previously reported (Wang S et al., J Med Chem 47:1662-1675, 2004 and Diab S. et al. CheMedChem 9:962-972, 2014).

[2] = target: CDK 2A (Homo sapiens, UniProt P24941); test: Kinase assay CDK2A (radiometric profiling service); format: biochemical; conditions: for Ki: apparent Ki calculated from Km (ATP) and IC50, read-out: CDK inhibition Ki CDK 2A
Method in brief: (§2)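 IC50 (4-parameter fit) and apparent Ki from Km (ATP). CDK1B, CDK2A, CDK7H: outsourced radiometric. CDK4/D1: radiometric or ADP-Glo, RB-CTF substrate, 40 min at 37° C, ten concentrations from 10 μM down to 0.5 nM.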

[3] = test system: MDA-MB-453; test: Cell viability assay (MTT, solid tumour cell line) MDA-MB-453; format: cell-based, human
Excerpt: as §1

[4] = target: CDK7H (Homo sapiens, UniProt P50613); test: Kinase assay CDK7H (radiometric profiling service); format: biochemical; conditions: for Ki: apparent Ki calculated from Km (ATP) and IC50, read-out: CDK inhibition Ki CDK7H
CDK7H, sequence (P50613 whole entry): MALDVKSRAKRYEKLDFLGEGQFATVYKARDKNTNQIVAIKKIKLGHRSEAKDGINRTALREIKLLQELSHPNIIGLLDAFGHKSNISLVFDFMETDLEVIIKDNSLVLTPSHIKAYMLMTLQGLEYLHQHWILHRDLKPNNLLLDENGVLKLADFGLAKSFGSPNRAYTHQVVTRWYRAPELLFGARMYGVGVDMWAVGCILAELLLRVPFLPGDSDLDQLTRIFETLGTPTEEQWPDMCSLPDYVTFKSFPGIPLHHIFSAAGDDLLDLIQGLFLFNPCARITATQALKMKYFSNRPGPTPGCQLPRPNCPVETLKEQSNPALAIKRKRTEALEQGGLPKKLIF
CDK7H, sequence (P51946 whole entry partner): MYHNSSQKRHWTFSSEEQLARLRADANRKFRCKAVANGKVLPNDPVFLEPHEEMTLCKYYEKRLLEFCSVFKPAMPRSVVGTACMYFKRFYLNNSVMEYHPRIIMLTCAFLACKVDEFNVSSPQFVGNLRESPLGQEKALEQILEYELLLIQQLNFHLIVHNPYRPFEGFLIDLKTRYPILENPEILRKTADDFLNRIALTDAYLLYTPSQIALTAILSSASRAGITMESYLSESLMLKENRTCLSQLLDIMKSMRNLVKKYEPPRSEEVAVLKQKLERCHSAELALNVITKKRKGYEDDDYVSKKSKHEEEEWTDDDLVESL
CDK7H, sequence (P51948 whole entry partner): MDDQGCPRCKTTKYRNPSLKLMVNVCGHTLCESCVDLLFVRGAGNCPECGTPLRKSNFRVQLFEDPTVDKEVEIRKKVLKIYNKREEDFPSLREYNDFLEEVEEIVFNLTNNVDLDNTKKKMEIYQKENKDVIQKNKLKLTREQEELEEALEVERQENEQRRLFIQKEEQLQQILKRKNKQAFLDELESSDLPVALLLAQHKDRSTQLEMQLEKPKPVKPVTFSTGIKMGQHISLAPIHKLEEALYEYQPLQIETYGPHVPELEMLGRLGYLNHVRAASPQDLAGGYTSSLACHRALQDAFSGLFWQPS
Method in brief: as §2

[5] = target: CDK1B (Homo sapiens, UniProt P06493); test: Kinase assay CDK1B (radiometric profiling service); format: biochemical; conditions: for Ki: apparent Ki calculated from Km (ATP) and IC50, read-out: CDK inhibition Ki CDK1B
CDK1B, sequence (P06493 whole entry): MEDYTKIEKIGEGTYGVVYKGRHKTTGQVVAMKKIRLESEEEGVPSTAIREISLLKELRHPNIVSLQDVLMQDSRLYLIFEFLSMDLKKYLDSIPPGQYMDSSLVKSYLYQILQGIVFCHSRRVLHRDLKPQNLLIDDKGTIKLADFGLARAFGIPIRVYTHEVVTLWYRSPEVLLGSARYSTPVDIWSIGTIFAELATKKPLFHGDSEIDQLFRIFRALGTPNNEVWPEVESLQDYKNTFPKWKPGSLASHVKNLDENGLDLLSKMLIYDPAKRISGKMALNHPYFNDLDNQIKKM
CDK1B, sequence (P14635 whole entry partner): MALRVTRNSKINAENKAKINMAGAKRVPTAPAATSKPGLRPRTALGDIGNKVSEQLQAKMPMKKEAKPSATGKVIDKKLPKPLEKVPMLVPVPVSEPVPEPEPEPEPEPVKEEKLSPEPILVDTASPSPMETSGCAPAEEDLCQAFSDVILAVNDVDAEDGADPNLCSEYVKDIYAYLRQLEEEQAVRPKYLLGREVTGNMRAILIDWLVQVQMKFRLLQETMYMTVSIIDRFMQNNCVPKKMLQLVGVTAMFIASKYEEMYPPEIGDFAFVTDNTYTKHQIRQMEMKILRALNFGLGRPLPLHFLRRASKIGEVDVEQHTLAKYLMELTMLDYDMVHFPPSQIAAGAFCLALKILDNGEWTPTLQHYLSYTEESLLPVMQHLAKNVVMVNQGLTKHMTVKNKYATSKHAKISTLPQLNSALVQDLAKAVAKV
Method in brief: as §2

[6] = target: T1, CDK6D3 (Homo sapiens, UniProt Q00534); test: Kinase assay CDK6/D3 (radiometric or ADP Glo); format: biochemical; conditions: apparent Ki calculated from Km (ATP) and IC50; read-out: CDK inhibition Ki CDK6D3
T1 construct: purchased Eurofins Pharma Discovery or Reaction Biology Corporation (service)
T1 sequence (Q00534 whole entry): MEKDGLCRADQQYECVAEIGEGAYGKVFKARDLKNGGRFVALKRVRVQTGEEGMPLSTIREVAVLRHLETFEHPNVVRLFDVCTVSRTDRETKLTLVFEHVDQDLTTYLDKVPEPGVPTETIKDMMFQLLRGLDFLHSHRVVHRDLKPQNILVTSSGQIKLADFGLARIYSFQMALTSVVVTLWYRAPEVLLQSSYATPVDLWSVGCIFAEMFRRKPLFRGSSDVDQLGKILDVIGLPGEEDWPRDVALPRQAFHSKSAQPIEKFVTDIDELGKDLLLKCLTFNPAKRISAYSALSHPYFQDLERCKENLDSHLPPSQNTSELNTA
T1 sequence (P30281 whole entry partner): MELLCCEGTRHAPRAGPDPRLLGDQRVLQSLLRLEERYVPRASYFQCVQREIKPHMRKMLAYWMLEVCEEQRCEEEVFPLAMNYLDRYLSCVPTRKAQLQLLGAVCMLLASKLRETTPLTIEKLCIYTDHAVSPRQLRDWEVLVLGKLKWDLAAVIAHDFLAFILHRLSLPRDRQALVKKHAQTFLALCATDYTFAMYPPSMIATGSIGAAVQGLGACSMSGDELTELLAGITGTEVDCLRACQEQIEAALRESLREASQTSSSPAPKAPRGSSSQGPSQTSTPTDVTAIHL
Method in brief: (§3)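 Radiometric inhibition data for CDKs came from Eurofins or Reaction Biology profiling services; CDK4/D1 was also run in-house by ADP-Glo in […] pH 7.5, 20 mM MgCl2, 0.4 mM DTT, 0.1 mg/ml BSA with RB-CTF substrate, 40 min at 37 °C after ATP start. Ten-point 1:3 dilutions (10 μM–0.5 nM); four-parameter IC50, Ki from IC50 and ATP Km.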

[7] = target: T2, CDK4D1 (Homo sapiens, UniProt P11802); test: Kinase assay CDK4/D1 (radiometric or ADP Glo); format: biochemical; conditions: apparent Ki calculated from Km (ATP) and IC50; read-out: CDK inhibition Ki CDK4D1
T2 construct: purchased Eurofins Pharma Discovery or Reaction Biology Corporation (service)
T2 sequence (P11802 whole entry): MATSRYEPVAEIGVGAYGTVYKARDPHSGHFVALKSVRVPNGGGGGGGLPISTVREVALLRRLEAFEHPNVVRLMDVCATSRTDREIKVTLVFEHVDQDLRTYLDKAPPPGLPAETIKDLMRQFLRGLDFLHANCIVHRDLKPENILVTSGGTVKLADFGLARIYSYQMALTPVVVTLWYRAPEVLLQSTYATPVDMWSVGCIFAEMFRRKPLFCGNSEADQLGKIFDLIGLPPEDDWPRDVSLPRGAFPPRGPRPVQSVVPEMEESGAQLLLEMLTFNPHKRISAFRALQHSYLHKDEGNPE
T2 sequence (P24385 whole entry partner): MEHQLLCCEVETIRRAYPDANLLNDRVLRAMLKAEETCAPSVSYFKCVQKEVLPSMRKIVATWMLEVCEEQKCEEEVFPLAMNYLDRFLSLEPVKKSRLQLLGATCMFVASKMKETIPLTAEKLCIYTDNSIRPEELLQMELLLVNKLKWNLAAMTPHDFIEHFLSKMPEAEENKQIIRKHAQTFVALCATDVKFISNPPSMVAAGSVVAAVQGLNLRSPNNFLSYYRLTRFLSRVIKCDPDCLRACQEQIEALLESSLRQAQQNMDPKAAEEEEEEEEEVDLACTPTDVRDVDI
Method in brief: as §2

[8] = target: T3, CDK9T1 (Homo sapiens, UniProt P50750); test: Kinase assay CDK9/T1 (radiometric or ADP Glo); format: biochemical; conditions: apparent Ki calculated from Km (ATP) and IC50; read-out: CDK inhibition Ki CDK9T1
T3 construct: purchased Eurofins Pharma Discovery or Reaction Biology Corporation (service)
T3 sequence (P50750 whole entry): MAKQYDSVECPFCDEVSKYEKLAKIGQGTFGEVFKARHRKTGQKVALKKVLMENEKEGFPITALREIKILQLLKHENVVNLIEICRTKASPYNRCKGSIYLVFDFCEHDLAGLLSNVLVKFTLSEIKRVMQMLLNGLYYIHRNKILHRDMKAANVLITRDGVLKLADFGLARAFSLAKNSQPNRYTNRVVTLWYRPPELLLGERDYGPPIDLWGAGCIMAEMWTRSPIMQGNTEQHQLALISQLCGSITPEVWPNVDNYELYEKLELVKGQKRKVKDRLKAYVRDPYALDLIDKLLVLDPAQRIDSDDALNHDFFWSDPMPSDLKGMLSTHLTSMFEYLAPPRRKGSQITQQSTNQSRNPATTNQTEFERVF
T3 sequence (O60563 whole entry partner): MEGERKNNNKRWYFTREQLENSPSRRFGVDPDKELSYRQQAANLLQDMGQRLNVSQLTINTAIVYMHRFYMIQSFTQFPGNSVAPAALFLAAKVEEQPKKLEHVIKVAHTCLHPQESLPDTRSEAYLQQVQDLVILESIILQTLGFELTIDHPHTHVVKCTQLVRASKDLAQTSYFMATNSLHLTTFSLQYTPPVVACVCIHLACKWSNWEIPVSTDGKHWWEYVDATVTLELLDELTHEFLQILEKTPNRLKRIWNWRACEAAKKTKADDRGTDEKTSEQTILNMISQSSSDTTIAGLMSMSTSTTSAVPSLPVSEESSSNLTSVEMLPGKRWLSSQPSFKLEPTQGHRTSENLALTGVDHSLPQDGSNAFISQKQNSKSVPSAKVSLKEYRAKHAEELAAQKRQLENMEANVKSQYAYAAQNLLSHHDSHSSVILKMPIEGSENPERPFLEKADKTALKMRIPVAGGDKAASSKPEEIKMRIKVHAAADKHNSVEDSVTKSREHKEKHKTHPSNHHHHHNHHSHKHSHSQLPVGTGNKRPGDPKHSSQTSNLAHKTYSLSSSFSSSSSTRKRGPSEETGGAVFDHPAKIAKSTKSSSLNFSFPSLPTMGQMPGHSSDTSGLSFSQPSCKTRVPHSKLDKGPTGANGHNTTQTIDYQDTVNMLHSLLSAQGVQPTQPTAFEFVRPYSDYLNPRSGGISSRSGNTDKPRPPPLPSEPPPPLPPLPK
Method in brief: as §3

[9] = test system: A2780; test: Cell viability assay, ovarian A2780; format: cell-based; conditions: Homo sapiens, read-out: Antiproliferative activity GI50 A2780
Excerpt: as §1

[10] = test system: D283; test: Cell viability assay, medulloblastoma D283; format: cell-based; conditions: Homo sapiens, read-out: Antiproliferative activity GI50 D283
Excerpt: as §1

[11] = test system: MV4-11; test: Cell viability assay (resazurin, leukemia cell line) MV4-11; format: cell-based, human
Excerpt: as §1

[12] = Homo sapiens, MDA-MB-453, 72 h; read-out: Anti-proliferative activity GI50 MDA-MB-453
[13] = Homo sapiens, MV4-11, 72 h; read-out: Anti-proliferative activity GI50 MV4-11

| SMILES | Ki [2] [nM] | Ki [4] [nM] | Ki [5] [nM] | Ki [6] [nM] | Ki [7] [nM] | Ki [8] [nM] | GI50 [3, 12] [nM] | GI50 [11, 13] [nM] | GI50 ([1]; Medulloblastoma) [nM] | GI50 ([9]; A2780, 72 h, Ovarian) [nM] | GI50 ([10]; D283, 72 h, Medulloblastoma) [nM] | remaining activity at 10 µM ([2]; compound at 10 μM, read-out: % remaining enzymatic activity at 10 μM CDK 2A) [%] | remaining activity at 10 µM ([4]; compound at 10 μM, read-out: % remaining enzymatic activity at 10 μM CDK7H) [%] | remaining activity at 10 µM ([5]; compound at 10 μM, read-out: % remaining enzymatic activity at 10 μM CDK1B) [%] | GI50 [1] [nM] | GI50 ([3]; Homo sapiens, MDA-MB-453, 72 h, read-out: Anti-proliferative activity GI50 MDA-MB-453) [nM] | GI50 ([9]; A2780, 72 h) [nM] | GI50 ([10]; D283, 72 h) [nM] | GI50 ([11]; Homo sapiens, MV4-11, 72 h, read-out: Anti-proliferative activity GI50 MV4-11) [nM] |
| --- | --- | --- | --- | --- | --- | --- | --- | --- | --- | --- | --- | --- | --- | --- | --- | --- | --- | --- | --- |
| CNc1nc(C)c(-c2ccnc(Nc3ccc(N4CCN(C)CC4)cn3)n2)s1 [Compound 29, N,4-dimethyl-5-(2-((5-(4-methylpiperazin-1-yl)pyridin-2-yl)amino)pyrimidin-4-yl)thiazol-2-amine] | 650 | > 5000 | 3210 | 50 | 5 | 1820 |  |  |  |  |  |  |  |  | 326 ± 29 | 544 ± 78 | 282 ± 58 | 335 ± 97 | 297 ± 61 |
| CC(=O)N1CCN(c2ccc(Nc3nccc(-c4sc(N(C)C)nc4C)n3)nc2)CC1 [Compound 48, 1-(4-(6-((4-(2-(dimethylamino)-4-methylthiazol-5-yl)pyrimidin-2-yl)amino)pyridin-3-yl)piperazin-1-yl)ethan-1-one] | 976 | > 5000 | > 5000 | 234 | 87 | > 5000 | 4720 ± 715 | 537 ± 133 |  |  |  |  |  |  |  |  |  |  |  |
| CC(=O)N1CCN(c2ccc(Nc3ncc(F)c(-c4sc(N(C)C)nc4C)n3)nc2)CC1 [Compound 49, 1-(4-(6-((4-(2-(dimethylamino)-4-methylthiazol-5-yl)-5-fluoropyrimidin-2-yl)amino)pyridin-3-yl)piperazin-1-yl)ethan-1-one] | 1040 | > 5000 | > 5000 | 366 | 24 | > 5000 | 2370 ± 26 | 208 ± 30 |  |  |  |  |  |  |  |  |  |  |  |
| CNc1nc(C)c(-c2nc(Nc3ccc(N4CCN(S(C)(=O)=O)CC4)cn3)ncc2F)s1 [Compound 52, 5-(5-fluoro-2-((5-(4-(methylsulfonyl)piperazin-1-yl)pyridin-2-yl)amino)pyrimidin-4-yl)-N,4-dimethylthiazol-2-amine] | 76 | > 5000 | 580 | 297 | 37 | > 5000 | 660 ± 92 | 425 ± 73 |  |  |  |  |  |  |  |  |  |  |  |
| CNc1nc(C)c(-c2nc(Nc3ccc(N4CCCNCC4)cn3)ncc2F)s1 [Compound 53, 5-(2-((5-(1,4-diazepan-1-yl)pyridin-2-yl)amino)-5-fluoropyrimidin-4-yl)-N,4-dimethylthiazol-2-amine] | 206 | > 5000 | 2370 | 32 | 3 | 3040 | 362 ± 3 | 80 ± 13 |  |  |  |  |  |  |  |  |  |  |  |
| Cc1nc(NC(C)C)sc1-c1ccnc(Nc2ccc(N3CCOCC3)cn2)n1 [Compound 58, N-isopropyl-4-methyl-5-(2-((5-morpholinopyridin-2-yl)amino)pyrimidin-4-yl)thiazol-2-amine] | 127 | > 5000 | > 5000 | 82 | 41 | > 5000 | 115 ± 24 | 32 ± 3 |  |  |  |  |  |  |  |  |  |  |  |
| Cc1nc(NC2CCCC2)sc1-c1nc(Nc2ccc(N3CCN(C)CC3)cn2)ncc1F [Compound 64] |  |  |  |  |  |  | 202 ± 30 | 73 ± 28 | 457 ± 171 | 56 ± 7 | 77 ± 6 |  |  |  |  |  |  |  |  |
| CC(=O)N1CCN(c2ccc(Nc3ncc(F)c(-c4sc(NC5CCCC5)nc4C)n3)nc2)CC1 [Compound 69, 1-(4-(6-((4-(2-(cyclopentylamino)-4-methylthiazol-5-yl)-5-fluoropyrimidin-2-yl)amino)pyridin-3-yl)piperazin-1-yl)ethan-1-one] | 228 | > 5000 | > 5000 | 23 | 34 | 4990 | 8110 ± 1150 | 15 ± 2 |  |  |  |  |  |  |  |  |  |  |  |
| FC(F)(F)c1nc(NC2CCCC2)sc1-c1ccnc(Nc2ccc(N3CCOCC3)cn2)n1 [Compound 73, N-cyclopentyl-5-(2-((5-morpholinopyridin-2-yl)amino)pyrimidin-4-yl)-4-(trifluoromethyl)thiazol-2-amine] | 154 | > 5000 | > 5000 | 11 | 8 | > 5000 | 415 ± 103 | 69 ± 13 |  |  |  |  |  |  |  |  |  |  |  |

The next lines start with results.

| Ki [2] [nM] | Ki [4] [nM] | Ki [5] [nM] | Ki [6] [nM] | Ki [7] [nM] | Ki [8] [nM] | GI50 [3, 12] [nM] | GI50 [11, 13] [nM] | GI50 ([1]; Medulloblastoma) [nM] | GI50 ([9]; A2780, 72 h, Ovarian) [nM] | GI50 ([10]; D283, 72 h, Medulloblastoma) [nM] | remaining activity at 10 µM ([2]; compound at 10 μM, read-out: % remaining enzymatic activity at 10 μM CDK 2A) [%] | remaining activity at 10 µM ([4]; compound at 10 μM, read-out: % remaining enzymatic activity at 10 μM CDK7H) [%] | remaining activity at 10 µM ([5]; compound at 10 μM, read-out: % remaining enzymatic activity at 10 μM CDK1B) [%] | SMILES | GI50 [1] [nM] | GI50 ([3]; Homo sapiens, MDA-MB-453, 72 h, read-out: Anti-proliferative activity GI50 MDA-MB-453) [nM] | GI50 ([9]; A2780, 72 h) [nM] | GI50 ([10]; D283, 72 h) [nM] | GI50 ([11]; Homo sapiens, MV4-11, 72 h, read-out: Anti-proliferative activity GI50 MV4-11) [nM] |
| --- | --- | --- | --- | --- | --- | --- | --- | --- | --- | --- | --- | --- | --- | --- | --- | --- | --- | --- | --- |
| > 5000 | > 5000 | > 5000 | 257 | 70 | > 5000 | 7040 ± 710 | 191 ± 29 |  |  |  |  |  |  | Cc1nc(NC2CCCC2)sc1-c1ccnc(Nc2ccc(N3CCCCC3)cn2)n1 [Compound 75, N-cyclopentyl-4-methyl-5-(2-((5-(piperidin-1-yl)pyridin-2-yl)amino)pyrimidin-4-yl)thiazol-2-amine] |  |  |  |  |  |
| 1150 | > 5000 | > 5000 | 31 | 1 | 1090 | 356 ± 24 | 454 ± 40 |  |  |  |  |  |  | Cc1nc(NC2CCCC2)sc1-c1nc(Nc2ccc(N3CCC(N(C)C)CC3)cn2)ncc1F [Compound 80, N-cyclopentyl-5-(2-((5-(4-(dimethylamino)piperidin-1-yl)pyridin-2-yl)amino)-5-fluoropyrimidin-4-yl)-4-methylthiazol-2-amine] |  |  |  |  |  |
| 348 | > 5000 | > 5000 | 101 | 39 | > 5000 | 2810 ± 89 | 2630 ± 582 |  |  |  |  |  |  | Cc1nc(NC2CCCC2)sc1-c1nc(Nc2ccc(N3CCN(S(C)(=O)=O)CC3)cn2)ncc1F [Compound 82, N-cyclopentyl-5-(5-fluoro-2-((5-(4-(methylsulfonyl)piperazin-1-yl)pyridin-2-yl)amino)pyrimidin-4-yl)-4-methylthiazol-2-amine] |  |  |  |  |  |
| 121 | > 5000 | 3170 | 31 | 10 | > 5000 | 6860 ± 798 | 328 ± 7 |  |  |  |  |  |  | CC(=O)N1CCN(c2ccc(Nc3nccc(-c4sc(N(C)C5CCCC5)nc4C)n3)nc2)CC1 [Compound 87, 1-(4-(6-((4-(2-(cyclopentyl(methyl)amino)-4-methylthiazol-5-yl)pyrimidin-2-yl)amino)pyridin-3-yl)piperazin-1-yl)ethan-1-one] |  |  |  |  |  |
| > 5000 | > 5000 | > 5000 | 485 | 19 | > 5000 | 494 ± 81 | 508 ± 42 |  |  |  |  |  |  | Cc1nc(Nc2ccccc2)sc1-c1ccnc(Nc2ccc(N3CCN(C)CC3)cn2)n1 [Compound 90, 4-methyl-5-(2-((5-(4-methylpiperazin-1-yl)pyridin-2-yl)amino)pyrimidin-4-yl)-N-phenylthiazol-2-amine] |  |  |  |  |  |
| 1040 | > 5000 | > 5000 | 100 | 26 | 2000 | 150 ± 29 | 421 ± 44 |  |  |  |  |  |  | Cc1nc(N(C)c2ccccc2)sc1-c1ccnc(Nc2ccc(N3CCN(C)CC3)cn2)n1 [Compound 91, N,4-dimethyl-5-(2-((5-(4-methylpiperazin-1-yl)pyridin-2-yl)amino)pyrimidin-4-yl)-N-phenylthiazol-2-amine] |  |  |  |  |  |
|  |  |  | 915 | 255 | 840 | > 10000 | 3720 ± 357 |  |  |  | 77 | 52 | 71 | Cc1c(-c2ccnc(Nc3ccc(N4CCN(C)CC4)cn3)n2)sc(=O)n1C [Compound 93, 3,4-dimethyl-5-(2-((5-(4-methylpiperazin-1-yl)pyridin-2-yl)amino)pyrimidin-4-yl)thiazol-2(3H)-one] |  |  |  |  |  |
| 1340 | 1260 | 3660 | 320 | 33 | 1580 | > 10000 | 1830 ± 194 |  |  |  |  |  |  | CCn1c(C)c(-c2ccnc(Nc3ccc(N4CCN(C)CC4)cn3)n2)sc1=O [Compound 94, 3-ethyl-4-methyl-5-(2-((5-(4-methylpiperazin-1-yl)pyridin-2-yl)amino)pyrimidin-4-yl)thiazol-2(3H)-one] |  |  |  |  |  |
